Assay results taken from ChEMBL document CHEMBL1134738, “Alpha-ketoester-based photobiological switches: synthesis, peptide chain extension and assay against alpha-chymotrypsin” (Bioorg Med Chem Lett, 2001).

Tests used:
Chymotrypsinogen A [1] = molecular target: T1, Chymotrypsinogen A (Bos taurus, UniProt P00766); assay: Inhibition constant for inhibition of alpha-chymotrypsin by the ambient light
Chymotrypsinogen A [2] = molecular target: T1, Chymotrypsinogen A; assay: Inhibition constant for inhibition of alpha-chymotrypsin by the UV light

SMILES | Ki (Chymotrypsinogen A [1]) | Ki (Chymotrypsinogen A [2])
COC(=O)C(=O)[C@H](Cc1ccccc1)NC(=O)c1ccc(/N=N/c2ccccc2)cc1 | 240 nM | 130 nM
COC(=O)C(=O)[C@H](Cc1ccccc1)NC(=O)OCc1ccc(/N=N/c2ccccc2)cc1 | 770 nM | 290 nM
